Earlier results as cited in US9227958B2, “Amorphous and crystalline forms of aprepitant and processes for the preparation thereof” (Glenmark Pharmaceuticals Limited, priority 2006, dated 2016).

Key:
Settings in all cases: stated in words, background
[1] = target: T1, serotonin (5-HT3) receptors (Homo sapiens, UniProt P46098)
T1 sequence (P46098 24-478): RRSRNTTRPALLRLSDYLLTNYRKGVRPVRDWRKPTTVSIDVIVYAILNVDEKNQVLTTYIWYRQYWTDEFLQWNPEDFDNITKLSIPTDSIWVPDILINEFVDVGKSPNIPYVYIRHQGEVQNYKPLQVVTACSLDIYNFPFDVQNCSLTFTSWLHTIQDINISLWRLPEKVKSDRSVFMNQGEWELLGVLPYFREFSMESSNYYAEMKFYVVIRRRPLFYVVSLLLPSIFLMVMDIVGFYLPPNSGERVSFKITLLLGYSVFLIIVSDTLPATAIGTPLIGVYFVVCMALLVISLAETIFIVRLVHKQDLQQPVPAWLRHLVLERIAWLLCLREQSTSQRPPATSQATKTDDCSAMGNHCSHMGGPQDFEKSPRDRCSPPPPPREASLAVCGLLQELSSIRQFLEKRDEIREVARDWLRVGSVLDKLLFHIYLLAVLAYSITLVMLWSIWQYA

[2] = test system: dopamine receptors
[3] = target: human substance P/neurokinin 1 (NK1) receptors (Homo sapiens, UniProt P25103)
[4] = test system: corticosteroid receptors

Chain of human substance P/neurokinin 1 (NK1) receptors (P25103 whole entry): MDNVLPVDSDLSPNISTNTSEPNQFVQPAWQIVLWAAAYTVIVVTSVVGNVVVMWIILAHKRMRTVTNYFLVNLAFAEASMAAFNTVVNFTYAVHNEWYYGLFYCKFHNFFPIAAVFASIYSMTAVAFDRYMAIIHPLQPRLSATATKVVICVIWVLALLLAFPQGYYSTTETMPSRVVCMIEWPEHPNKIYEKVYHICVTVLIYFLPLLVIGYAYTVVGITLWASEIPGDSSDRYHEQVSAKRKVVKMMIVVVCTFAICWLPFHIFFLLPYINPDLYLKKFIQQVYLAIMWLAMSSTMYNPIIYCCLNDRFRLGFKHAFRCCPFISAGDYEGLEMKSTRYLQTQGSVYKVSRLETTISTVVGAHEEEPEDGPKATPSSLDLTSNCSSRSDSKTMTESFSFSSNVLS

affinity for serotonin (5-HT3) receptors [1]: little or no affinity
affinity for dopamine receptors [2]: little or no affinity
affinity / antagonism at human substance P/neurokinin 1 (NK1) receptors [3]: selective high-affinity antagonist
affinity for corticosteroid receptors [4]: little or no affinity
Compound: C[C@@H](O[C@H]1OCCN(Cc2n[nH]c(=O)[nH]2)[C@H]1c1ccc(F)cc1)c1cc(C(F)(F)F)cc(C(F)(F)F)c1 [Aprepitant]
